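Test compounds were applied to cells in 96-well plates for 48 hours at 5 doses. GI50 is the concentration that inhibits growth by half.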 Activity calls are given as the source filed them. No stated cut-off is given here; in the data, active = GI50 up to about 1.1 µM and inactive = higher.
Experiments:
Test in all cases: growth of human tumour cells (NCI), 48 h
[1] = system: 786-0
[2] = system: A498
[3] = system: A549
[4] = system: ACHN
[5] = system: BT-549
[6] = system: CAKI-1
[7] = system: CCRF-CEM
[8] = system: COLO 205
[9] = system: DU-145
[10] = system: HCC 2998
[11] = system: HCT-116
[12] = system: HCT-15
[13] = system: HL-60
[14] = system: HOP-62
[15] = system: HOP-92
[16] = system: HT-29
[17] = system: Hs-578T
[18] = system: IGROV-1
[19] = system: K562
[20] = system: KM12
[21] = system: LOX IMVI
[22] = system: M14
[23] = system: MCF7
[24] = system: MDA-MB-231
[25] = system: MDA-MB-435
[26] = system: MDA-N
[27] = system: MOLT-4
[28] = system: Malme-3M
[29] = system: NCI-H226
[30] = system: NCI-H23
[31] = system: NCI-H460
[32] = system: NCI-H522
[33] = system: NCI/ADR-RES
[34] = system: OVCAR-3
[35] = system: OVCAR-4
[36] = system: OVCAR-5
[37] = system: OVCAR-8
[38] = system: PC-3
[39] = system: RPMI-8226
[40] = system: RXF 393
[41] = system: SF-268
[42] = system: SF-295
[43] = system: SF-539
[44] = system: SK-MEL-2
[45] = system: SK-MEL-5
[46] = system: SK-OV-3
[47] = system: SN12C
[48] = system: SNB-19
[49] = system: SNB-75
[50] = system: SR
[51] = system: SW-620
[52] = system: T47D
[53] = system: TK-10
[54] = system: U-251
[55] = system: UACC-257
[56] = system: UACC-62
[57] = system: UO-31

SMILES: Cc1cc(S(=O)(=O)Nc2nnc3cnc4ccccc4n23)c(S)cc1Cl
- GI50 [1]: > 100 µM (inactive)
- GI50 [2]: > 100 µM (inactive)
- GI50 [3]: > 100 µM (inactive)
- GI50 [4]: 6.73 µM (inactive)
- GI50 [5]: > 88.5 µM (inactive)
- GI50 [6]: > 100 µM (inactive)
- GI50 [7]: > 100 µM (inactive)
- GI50 [8]: > 100 µM (inactive)
- GI50 [9]: > 100 µM (inactive)
- GI50 [10]: > 100 µM (inactive)
- GI50 [11]: > 100 µM (inactive)
- GI50 [12]: > 100 µM
- GI50 [13]: > 100 µM (inactive)
- GI50 [14]: 79.4 µM (inactive)
- GI50 [15]: 11.1 µM (inactive)
- GI50 [16]: > 100 µM (inactive)
- GI50 [17]: 57.8 µM (inactive)
- GI50 [18]: > 100 µM (inactive)
- GI50 [19]: > 100 µM (inactive)
- GI50 [20]: > 83.6 µM (inactive)
- GI50 [21]: > 100 µM (inactive)
- GI50 [22]: > 100 µM (inactive)
- GI50 [23]: > 100 µM (inactive)
- GI50 [24]: > 100 µM (inactive)
- GI50 [25]: > 100 µM (inactive)
- GI50 [26]: > 100 µM (inactive)
- GI50 [27]: > 100 µM (inactive)
- GI50 [28]: > 100 µM (inactive)
- GI50 [29]: > 94.6 µM (inactive)
- GI50 [30]: > 100 µM (inactive)
- GI50 [31]: 51.5 µM (inactive)
- GI50 [32]: > 100 µM (inactive)
- GI50 [33]: > 100 µM (inactive)
- GI50 [34]: 98.9 µM (inactive)
- GI50 [35]: > 100 µM (inactive)
- GI50 [36]: > 100 µM (inactive)
- GI50 [37]: > 52.1 µM (inactive)
- GI50 [38]: > 100 µM (inactive)
- GI50 [39]: > 100 µM (inactive)
- GI50 [40]: > 100 µM (inactive)
- GI50 [41]: 98.6 µM (inactive)
- GI50 [42]: > 100 µM (inactive)
- GI50 [43]: > 100 µM (inactive)
- GI50 [44]: 97.1 µM (inactive)
- GI50 [45]: > 41.7 µM (inactive)
- GI50 [46]: > 100 µM (inactive)
- GI50 [47]: > 100 µM (inactive)
- GI50 [48]: 51.9 µM (inactive)
- GI50 [49]: > 54.5 µM (inactive)
- GI50 [50]: > 100 µM (inactive)
- GI50 [51]: > 100 µM (inactive)
- GI50 [52]: > 100 µM (inactive)
- GI50 [53]: > 100 µM (inactive)
- GI50 [54]: > 74.1 µM (inactive)
- GI50 [55]: > 100 µM (inactive)
- GI50 [56]: 79.1 µM (inactive)
- GI50 [57]: 35.2 µM (inactive)
